The results in this text go back to patent US20240217990A1 (Gilead Sciences, Inc., priority 2021, published 2024).

One assay concerns the target T1, TLR7 (Homo sapiens, UniProt Q9NYK1).
T1 construct: Human peripheral blood mononuclear cells (PBMCs) consist of lymphocytes, monocytes and dendritic cells that express TLR7, TLR8 and TLR9; endogenous in cells; host or cells: cryopreserved human PBMCs from healthy donors
T1 sequence (Q9NYK1 27-1049): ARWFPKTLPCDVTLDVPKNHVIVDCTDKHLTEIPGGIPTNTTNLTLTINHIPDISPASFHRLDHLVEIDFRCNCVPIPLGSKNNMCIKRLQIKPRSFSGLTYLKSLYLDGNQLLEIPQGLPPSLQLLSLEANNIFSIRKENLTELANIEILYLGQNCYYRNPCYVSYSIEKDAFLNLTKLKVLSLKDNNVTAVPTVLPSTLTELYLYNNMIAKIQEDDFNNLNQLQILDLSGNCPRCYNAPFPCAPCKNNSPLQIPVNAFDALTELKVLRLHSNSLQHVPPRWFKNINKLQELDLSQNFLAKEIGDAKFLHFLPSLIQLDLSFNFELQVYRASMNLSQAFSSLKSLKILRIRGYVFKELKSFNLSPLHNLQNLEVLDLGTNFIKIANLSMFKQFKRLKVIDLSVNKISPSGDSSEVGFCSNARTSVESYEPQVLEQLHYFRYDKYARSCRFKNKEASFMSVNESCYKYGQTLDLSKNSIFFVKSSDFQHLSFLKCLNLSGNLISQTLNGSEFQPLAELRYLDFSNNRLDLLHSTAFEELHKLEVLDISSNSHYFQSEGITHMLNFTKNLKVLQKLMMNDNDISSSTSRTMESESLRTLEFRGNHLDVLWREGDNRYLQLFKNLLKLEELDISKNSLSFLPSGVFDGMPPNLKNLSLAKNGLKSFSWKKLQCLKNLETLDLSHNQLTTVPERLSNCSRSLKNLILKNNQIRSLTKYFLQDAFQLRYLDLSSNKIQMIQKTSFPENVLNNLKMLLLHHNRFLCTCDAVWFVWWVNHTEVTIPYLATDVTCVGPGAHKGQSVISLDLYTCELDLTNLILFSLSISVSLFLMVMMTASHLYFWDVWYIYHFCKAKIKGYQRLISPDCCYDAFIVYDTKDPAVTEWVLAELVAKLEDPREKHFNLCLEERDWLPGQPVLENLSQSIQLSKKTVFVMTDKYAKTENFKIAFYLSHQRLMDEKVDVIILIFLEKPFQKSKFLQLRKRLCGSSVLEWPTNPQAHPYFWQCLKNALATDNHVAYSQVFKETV
As to the kind of experiment: TLR7 human PBMC cell-based assay (antagonist, GS-986 stimulated cytokine release). The following applies: human PBMCs; TLR7 agonist GS-986 400 nM, 6 hours; cytokines (IL-6 and IFNα) in supernatant; read-out: TLR-7 EC50. The source says: (§1) Human peripheral blood mononuclear cells (PBMCs) consist of lymphocytes, monocytes and dendritic cells that express TLR7, TLR8 and TLR9. These cells respond to TLR7, TLR8 and TLR9 ligand stimulation and produce cytokines and chemokines in vitro and in vivo. Human PBMCs are therefore suitable to be used in a cell-based assay to assess the in vitro potency of a TLR 7, 8, and/or 9 antagonist. The result is expected to be more translatable to the pharmacodynamics response in vivo than cell line-based assays.
Cryopreserved human PBMCs from healthy donors were thawed and resuspended in RPMI-1640 media with L-glutamine (Corning) supplemented with 10% Fetal Bovine Serum (Hyclone) and 1× Penicillin-Streptomycin (Corning). After counting, the cell density was adjusted to 2 million cells/ml and incubated for 1 hour at 37° C., 5% CO2 for recovery. Following the recovery, the cells were plated by adding 50 μl per well (100,000 cells) to 384-well cell culture plates (Greiner) containing 250 nl of test antagonists in 100% DMSO per well, in a 10 points dose response in quadruplicates. PBMCs were incubated in the presence of test antagonists for one hour at 37° C., 5% CO2 before being stimulated with a TLR7 or TLR9agonist. GS-986 (Gilead Sciences) was used as the TLR7 agonist at a final concentration of 400 nM. ODN-2216 (InvivoGen) was used as the TLR9 agonist at a final concentration of 3 μM. PBMCs were incubated in the presence of the test antagonist and the TLR7 (or TLR9) agonist for an additional 6 hours at 37° C., 5% CO2. At the end of the incubation, the cell culture plates were centrifuged at 500 g for 5 min, and the cell culture supernatant was collected. The level of cytokines (IL-6 and IFNα) in the supernatant was measured by electrochemiluminescence immunoassays (Mesoscale Discovery) following manufacturer's recommended protocols. The level of cytokine measured was plotted against the test antagonist concentration and fitted to a sigmoidal function to determine the EC50, which are shown below in Table 11.

For the next assay, the target named is T2, TLR8 (Homo sapiens, UniProt Q9NR97).
T2 construct: Human peripheral blood mononuclear cells (PBMCs) consist of lymphocytes, monocytes and dendritic cells that express TLR7, TLR8 and TLR9; endogenous in cells; host or cells: cryopreserved human PBMCs from healthy donors
T2 sequence (Q9NR97 27-1041): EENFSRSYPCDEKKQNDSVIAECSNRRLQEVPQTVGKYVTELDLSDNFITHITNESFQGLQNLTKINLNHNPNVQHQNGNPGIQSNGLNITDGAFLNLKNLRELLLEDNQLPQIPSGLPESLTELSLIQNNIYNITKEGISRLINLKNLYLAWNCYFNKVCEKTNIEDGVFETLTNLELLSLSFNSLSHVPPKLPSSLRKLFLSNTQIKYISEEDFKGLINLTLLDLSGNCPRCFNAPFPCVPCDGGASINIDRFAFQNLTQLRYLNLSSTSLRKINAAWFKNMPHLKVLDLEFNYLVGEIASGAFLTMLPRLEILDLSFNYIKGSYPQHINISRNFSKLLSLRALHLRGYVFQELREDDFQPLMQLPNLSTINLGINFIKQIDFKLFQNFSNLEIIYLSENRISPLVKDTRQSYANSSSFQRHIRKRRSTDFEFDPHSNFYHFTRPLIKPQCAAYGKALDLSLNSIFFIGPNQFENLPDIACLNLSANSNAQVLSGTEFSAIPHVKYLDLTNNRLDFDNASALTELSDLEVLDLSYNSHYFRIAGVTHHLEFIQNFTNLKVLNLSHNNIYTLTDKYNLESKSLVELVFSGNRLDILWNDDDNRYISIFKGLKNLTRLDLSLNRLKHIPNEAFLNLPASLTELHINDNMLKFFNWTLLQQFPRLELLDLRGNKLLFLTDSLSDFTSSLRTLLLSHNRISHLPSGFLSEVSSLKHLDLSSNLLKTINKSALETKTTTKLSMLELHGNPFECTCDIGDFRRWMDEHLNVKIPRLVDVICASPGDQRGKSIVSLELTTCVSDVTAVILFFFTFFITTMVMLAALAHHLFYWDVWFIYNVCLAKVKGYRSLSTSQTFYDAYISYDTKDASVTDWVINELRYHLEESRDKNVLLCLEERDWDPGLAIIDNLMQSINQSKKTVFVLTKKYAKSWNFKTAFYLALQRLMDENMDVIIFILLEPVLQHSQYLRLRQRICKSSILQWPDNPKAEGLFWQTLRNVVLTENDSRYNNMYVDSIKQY
In words: TLR8 human PBMC cell-based assay (antagonist, Compound A stimulated cytokine release). To be noted: human PBMCs; TLR8 agonist Compound A 800 nM, 6 hours; cytokines (TNFa and IL 12p40) in supernatant; read-out: TLR-8 EC50.
From the text: as §1
Cryopreserved human PBMCs from healthy donors were thawed and resuspended in RPMI-1640 media with L-glutamine (Corning) supplemented with 10% Fetal Bovine Serum (Hyclone) and 1X Penicillin-Streptomycin (Corning). After counting, the cell density was adjusted to 2 million cells/ml and incubated for 1 hour at 37° C., 5% CO2 for recovery. Following the recovery, the cells were plated by adding 50 μl per well (100,000 cells) to 384-well cell culture plates (Greiner) containing 250 nl of test antagonists in 100% DMSO per well, in a 10 points dose response in quadruplicates. PBMCs were incubated in the presence of antagonists for one hour at 37° C., 5% CO2 before being stimulated with TLR8 agonist. Compound A (Gilead Sciences, U.S. Pat. No. 10,285,990) was used as the TLR8 agonist at a final concentration of 800 nM. PBMCs were incubated in the presence of antagonist and the TLR8 agonist for an additional 6 hours at 37° C., 5% CO2. At the end of the incubation, the cell culture plates were centrifuged at 500 g for 5 min, and the cell culture supernatant was collected. The level of cytokines (TNFa and IL 12p40) in the supernatant was measured by electrochemiluminescence immunoassays (Mesoscale Discovery) following manufacturer's recommended protocols. The level of cytokine measured was plotted against the antagonist concentration and fitted to a sigmoidal function to determine the EC50, which are shown below in Table 11.

pEC50: −log10 of the molar value.

The term pEC50 denotes the EC50 on a negative log10 scale, so that one unit is a factor of ten. With `Cc1cc(-c2[nH]c3cc(C(=O)N4CCCNCC4)sc3c2C(C)C)cc(C)n1` [Example 13], the negative logarithm of the EC50 (pEC50) at TLR7 is 7.34; on TLR8, 7.57.
Turning to `Cc1cc(-c2[nH]c3cc(C(=O)N4CCC5(CCNC5)C4)sc3c2C(C)C)cc(C)n1` (stereo not drawn) [Example 14], the pEC50 was 6.51 at TLR7 and 6.23 on TLR8.
`Cc1cc(-c2[nH]c3cc(C(=O)N4C5CNCC4COC5)sc3c2C(C)C)cc(C)n1` [Example 15]: the pEC50 at TLR7 is 7.22; on TLR8 it was 7.14.
On to `Cc1cc(-c2[nH]c3cc(C(=O)N4CC5CCC(C4)N5)sc3c2C(C)C)cc(C)n1` [Example 16], for which the negative-log EC50 (pEC50) on TLR7 was 7.36; at TLR8, 7.82.
In the case of `Cc1cc(-c2[nH]c3cc(C(=O)N4C5CCC4CNC5)sc3c2C(C)C)cc(C)n1` [Example 17], the values for the negative logarithm of the EC50 (pEC50) at TLR7 and at TLR8 were 7.30 and 7.49, respectively.
Taken in the same sequence, the figures for `Cc1cc(-c2[nH]c3cc(C(=O)N4CC5CC(C4)N5)sc3c2C(C)C)cc(C)n1` [Example 18] were 6.70 and 7.17.
On to `Cc1cc(-c2[nH]c3cc(C(=O)N4C5CNCC4C5)sc3c2C(C)C)cc(C)n1` [Example 19], for which the pEC50 was 7.11 at TLR7 and 7.27 on TLR8.
As for `Cc1cc(-c2[nH]c3cc(C(=O)N4C[C@@H]5C[C@H]4CN5)sc3c2C(C)C)cc(C)n1` [Example 20], the pEC50 at TLR7 is 6.65; on TLR8 it was 7.58.
As for `Cc1cc(-c2[nH]c3cc(C(=O)N4C[C@H]5C[C@@H]4CN5)sc3c2C(C)C)cc(C)n1` [Example 21], the results for the negative logarithm of the EC50 (pEC50) on TLR7 and at TLR8 were 7.15 and 7.18, respectively.
Take `Cc1cc(-c2[nH]c3cc(C(=O)N(C)[C@@H]4CCNC4)sc3c2C(C)C)cc(C)n1` [Example 22]: the figures for the negative-log EC50 (pEC50) at TLR7 and at TLR8 were 7.30 and 7.03, respectively.
Consider `Cc1cc(-c2[nH]c3cc(C(=O)N(C)[C@H]4CCNC4)sc3c2C(C)C)cc(C)n1` [Example 23], for which the values for the pEC50 at TLR7 and at TLR8 were 7.70 and 7.17, respectively.
Taken in the same sequence, the figures for `Cc1cc(-c2[nH]c3cc(C(=O)N4CC5(CNC5)C4)sc3c2C(C)C)cc(C)n1` [Example 24] were 6.30 and 6.39.
As for `CO[C@@H]1CCN(C(=O)c2cc3[nH]c(-c4cc(C)nc(C)c4)c(C(C)C)c3s2)C[C@@H]1N` [Example 25], the results for the negative-log EC50 (pEC50) at TLR7 and at TLR8 were 7.19 and 6.87, respectively.
For `Cc1cc(-c2[nH]c3cc(C(=O)N4CC[C@@H](F)[C@@H](N)C4)sc3c2C(C)C)cc(C)n1` [Example 27], the negative-log EC50 (pEC50) was 7.14 on TLR7 and 6.91 on TLR8.
Take `Cc1cc(-c2[nH]c3cc(C(=O)N4CCCC5NCCC54)sc3c2C(C)C)cc(C)n1` (stereo not drawn) [Example 28]: the pEC50 at TLR7 was 7.59; on TLR8 it was 7.09.
With `Cc1cc(-c2[nH]c3cc(C(=O)N(C)[C@H]4CCCNC4)sc3c2C(C)C)cc(C)n1` [Example 29], the negative logarithm of the EC50 (pEC50) is 7.22 at TLR7 and 7.04 on TLR8.
With `Cc1cc(-c2[nH]c3cc(C(=O)N4CCC5CCNC5C4)sc3c2C(C)C)cc(C)n1` (stereo not drawn) [Example 30], the results for the pEC50 on TLR7 and at TLR8 were 7.44 and 7.52, respectively.
Taken in the same sequence, the figures for `Cc1cc(-c2[nH]c3cc(C(=O)N4CCC5CC5(N)C4)sc3c2C(C)C)cc(C)n1` (stereo not drawn) [Example 31] were 7.39 and 7.17.
On the same counts, the results for `Cc1c(-c2[nH]c3cc(C(=O)N4CCNCC4)sc3c2C(C)C)cn2ncnc2c1C` [Example 32] are 8.68 and 8.92.
Taken in the same sequence, the figures for `Cc1cc(-c2[nH]c3cc(C(=O)N4CCNCC4)sc3c2C(C)C)cn(C)c1=O` [Example 34] were 8.01 and 8.52.
For `Cc1cc(-c2[nH]c3cc(C(=O)N(C)[C@H]4CCNC4)sc3c2C(C)C)cn(C)c1=O` [Example 36], the pEC50 at TLR7 is 7.53; on TLR8, 7.43.
